Reference: ChEMBL document CHEMBL5729275 (2022)

assay: RSV-A Assay : Hep-2 cells, (originally derived from tumors grown in irradiated-cortisonised weanling rats that had been injected with epidermoid carcinoma tissue from a person's larynx, but later found to be indistinguishable from HeLa cells by PCR DNA analysis), were used for the culturing of genotype A, “Long” strain RSV. Flasks were inoculated with RSV and viral stocks were collected once cytopathic effect (CPE) was greater than 90%. Viral stocks in 25% sucrose media were snap frozen using liquid nitrogen to increase viral stability. Viral stock titers were quantified by tissue culture infectious dose 50% (TCID50) using 8,000 cells per well and 3-fold viral dilutions across a 96-well plate, cultured for 4 days. Viral stock titers were also quantified by a plaque forming unit assay, as described elsewhere.Following extensive parameter testing, the final assay is run as follows: Hep-2 cells are seeded into the inner 60 wells of a 96-well plate at 8,000 cells per well in a volume of 50 μL using Growth Media (DMEM without phenol red, 1% L-Glut, 1% Penn/Strep, 1% nonessential amino acids, 10% heat-inactivated FBS). 2-fold serial dilutions of control and test compounds are added to the wells in duplicate in a total volume of 25 μL. Viral stock is then added to the wells at a multiplicity of infection (MOI) of 0.1 in a volume of 25 μL, bringing the total volume of each well to 100 μL. The MOI is calculated using the PFU/mL, or TCID50 if unavailable. Each 96-well plate has a control column of 6 wells with cells and virus but no compound (negative control, max CPE), a column with cells but no compound or virus (positive control, minimum CPE), and a column with no cells or virus or compound (background plate/reagent control). The control wells with cells but no virus are given an additional […], of growth media containing an equal quantity of sucrose as those wells receiving the viral stock in order to keep consistent in media and volume conditions. The outer wells of the plate are filled with 125 μL of moat media (DMEM, 1% Penn/Strep) to act as a thermal and evaporative moat around the test wells. Following a 5-day incubation period, the plates are read using ATPlite (50 uL added per well), which quantifies the amount of ATP (a measure of cell health) present in each well. Assay plates are read using the Envision luminometer.

Structure (SMILES) | EC50
COc1cc(C(=O)NC[C@](O)(c2cc3c(c(-c4ccc(F)cc4)n2)OC[C@@]3(N)C(F)(F)F)C2CC2)cc2cn(C)nc12 | < 200 nM
COC[C@](O)(CNC(=O)c1ccc(OC2CC2)c(OC)c1)c1cc2c(c(-c3ccc(F)cc3)n1)OC[C@@]2(N)C(F)(F)F | < 200 nM
Cc1ccc2cc(C(=O)NC[C@](O)(c3cc4c(c(-c5ccc(F)cc5)n3)OC[C@@]4(N)C(F)(F)F)C3CC3)cc(OC3CC3)c2n1 | < 200 nM
N[C@@]1(C(F)(F)F)COc2c1cc([C@@](O)(CNC(=O)c1cc(OC3CC3)c3[nH]c(=O)ccc3c1)C1CC1)nc2-c1ccc(F)cc1 | > 200 nM
COc1cc(C(=O)NC[C@](O)(c2cc3c(c(-c4ccc(F)cc4)n2)OC[C@@]3(N)C(F)(F)F)C2COC2)ccc1OC1CC1 | > 200 nM
COc1cc(C(=O)NC[C@@](O)(CO)c2cc3c(c(-c4ccc(F)cc4)n2)OC[C@@]3(N)C(F)(F)F)ccc1OC1CC1 | < 200 nM
N[C@@]1(C(F)(F)F)COc2c1cc([C@@](O)(CNC(=O)c1cc(OC3CC3)c3nn(C4CC4)cc3c1)C1CC1)nc2-c1ccc(F)c(Cl)c1 | < 200 nM
C[C@](O)(CNC(=O)c1cc(OC2CC2)c2ncccc2c1)c1cc2c(c(-c3ccc(F)c(Cl)c3)n1)OC[C@@]2(N)C(F)(F)F | > 200 nM
N[C@@]1(C(F)(F)F)COc2c1cc([C@@](O)(CNC(=O)c1cc(OC3CC3)c3nn(C4CC4)cc3c1)C1CC1)nc2-c1ccc(F)cc1 | < 200 nM
N[C@@]1(C(F)(F)F)COc2c1cc([C@@](O)(CNC(=O)c1cc(OC3CC3)c3nc(Cl)ccc3c1)C1CC1)nc2-c1ccc(F)cc1 | < 200 nM
N[C@@]1(C(F)(F)F)COc2c1cc([C@](O)(CO)CNC(=O)c1cc(OC3CC3)c3ncccc3c1)nc2-c1ccc(F)cc1 | > 200 nM
COc1cc(C(=O)NC[C@](O)(c2cc3c(c(-c4ccc(F)cc4)n2)OC[C@@]3(N)C(F)(F)F)C2CC2)cc2sc(N)nc12 | < 200 nM
COC[C@](O)(CNC(=O)c1cc(OC2CC2)c2ncccc2c1)c1cc2c(c(-c3ccc(F)cc3)n1)OC[C@@]2(N)C(F)(F)F | < 200 nM
Nc1nc2ccc(C(=O)NC[C@](O)(c3cc4c(c(-c5ccc(F)cc5)n3)OC[C@@]4(N)C(F)(F)F)C3CC3)cc2s1 | < 200 nM
Nc1nc2c(F)cc(C(=O)NC[C@](O)(c3cc4c(c(-c5ccc(F)cc5)n3)OC[C@@]4(N)C(F)(F)F)C3CC3)cc2s1 | < 200 nM
N[C@@]1(C(F)(F)F)COc2c1cc([C@@](O)(CNC(=O)c1cc(OC3CC3)c3c(ccc[n+]3[O-])c1)C1CC1)nc2-c1ccc(F)cc1 | > 200 nM
Cn1cc2cc(C(=O)NC[C@](O)(c3cc4c(c(-c5ccc(F)cc5)n3)OC[C@@]4(N)C(F)(F)F)C3CC3)cc(OC3CC3)c2n1 | < 200 nM
Cn1cc2cc(C(=O)NC[C@](O)(c3cc4c(c(-c5ccc(F)cc5)n3)OC[C@@]4(N)C(F)(F)F)C3CC3)cc(F)c2n1 | < 200 nM
N[C@@]1(C(F)(F)F)COc2c1cc([C@@](O)(CNC(=O)c1cc(OC3CC3)c3ncccc3c1)C1COC1)nc2-c1ccc(F)cc1 | > 200 nM
